Source: patent US12577231B2, “Androgen receptor PROTACS” (GlaxoSmithKline Intellectual Property Development Limited, priority 2023, dated 2026)

Target: T1, Androgen Receptor protein in human LnCaP cells (Homo sapiens, UniProt P10275, T878A)
T1 construct: the AR gene was modified, using CRISPR/Cas9 editing, so the expressed AR protein included an 11 amino acid HiBiT tag; endogenous in cells; host or cells: clonal LnCaP derived cell line, endogenous AR gene edited by CRISPR/Cas9
T1 sequence (P10275 1-920 T878A): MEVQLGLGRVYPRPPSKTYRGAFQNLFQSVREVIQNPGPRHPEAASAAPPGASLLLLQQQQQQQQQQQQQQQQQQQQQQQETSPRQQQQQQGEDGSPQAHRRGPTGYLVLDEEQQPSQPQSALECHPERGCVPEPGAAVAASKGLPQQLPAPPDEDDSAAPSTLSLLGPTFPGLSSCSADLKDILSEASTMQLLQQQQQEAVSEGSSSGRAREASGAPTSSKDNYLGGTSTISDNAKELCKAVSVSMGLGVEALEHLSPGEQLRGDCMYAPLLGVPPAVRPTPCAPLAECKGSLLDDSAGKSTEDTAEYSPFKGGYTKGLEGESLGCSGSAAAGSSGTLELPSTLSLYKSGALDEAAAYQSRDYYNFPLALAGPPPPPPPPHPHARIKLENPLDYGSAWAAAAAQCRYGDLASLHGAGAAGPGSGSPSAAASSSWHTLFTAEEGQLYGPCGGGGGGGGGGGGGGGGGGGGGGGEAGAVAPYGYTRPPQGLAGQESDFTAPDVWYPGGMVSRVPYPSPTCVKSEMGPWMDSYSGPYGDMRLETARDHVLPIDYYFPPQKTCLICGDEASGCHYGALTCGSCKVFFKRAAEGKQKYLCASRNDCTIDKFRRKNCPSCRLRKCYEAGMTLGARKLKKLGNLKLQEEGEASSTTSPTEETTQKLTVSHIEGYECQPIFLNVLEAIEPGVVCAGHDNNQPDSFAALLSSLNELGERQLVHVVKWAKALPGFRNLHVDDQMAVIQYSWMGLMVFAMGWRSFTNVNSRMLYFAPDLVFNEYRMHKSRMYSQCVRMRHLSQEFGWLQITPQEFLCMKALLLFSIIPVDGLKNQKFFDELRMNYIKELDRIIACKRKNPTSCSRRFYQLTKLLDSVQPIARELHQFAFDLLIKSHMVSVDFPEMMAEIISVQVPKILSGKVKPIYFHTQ
Test: Androgen Receptor Degradation Assay (Nano-Glo HiBiT, LnCaP cells)
Type: cell-based
Details: 18 h, HiBiT-tagged AR LnCaP cells, 18 h incubation, fitted curve asymptote maximum of degradation, read-out: mean asymptote max
Description: Degradation of Androgen Receptor protein in human LnCaP cells treated with PROTACs was quantified using the Nano-Glo® HiBiT Lytic Detection System (Promega) in 384 well assay plate format. A clonal LnCaP derived cell line was first established in which the AR gene was modified, using CRISPR/Cas9 editing, so the expressed AR protein included an 11 amino acid HiBiT tag at its amino-terminus. 10 mM DMSO stock solutions of PROTACs were prepared and diluted across an 11 concentration, 3 fold increment range, and 25 nL dispensed into a white opaque bottomed 384 well assay plate (Thermofisher) using an acoustic ECHO dispenser (Labcyte). Cells were grown in cell culture medium (RPMI 1640 supplemented with 15% FBS, penicillin 50U/mL and streptomycin 50 ug/mL (Thermofisher)). For the assay, cells were detached from flask and resuspended with assay medium (FluoroBrite™ DMEM supplemented with 10% heat inactivated FBS, penicillin 50U/mL and streptomycin 50 ug/mL (Thermofisher)). The cell suspension was centrifuged at 400 g for 5 min and the pellet resuspended in assay medium. 25 μL of cell suspension containing 10,000 cells was dispensed into each well of the assay plate containing a serial dilution of test compounds, which was then incubated for 18 h at 37° C./5% CO2. Control wells were included on each assay plate, with assay medium without cells being the no AR remaining 100% effect control, and cells treated with DMSO vehicle only, without PROTAC, the 0% effect control. 25 μL of Nano-Glo® HiBiT lysis buffer supplemented with LgBiT protein and Nano-Glo® substrate (Promega) was added to each well and the plate shaken at 500 rpm for 10 min at room temperature. The intensity of luminescence was measured using a PHERAstar microplate reader (BMG Labtech) and the % AR protein remaining in each well calculated by normalising the raw luminescence value to the above control wells. Parameters corresponding to the potency and efficacy estimates of the PROTACs were obtained from these normalised luminescence values using software (IDBS ActivityBase). These included the DC50 (concentration at which 50% of protein was degraded in M) and the Dmax (maximal degradation, in %) estimates. Two versions of the DC50, called relative DC50 and absolute DC50, were generated. These are the inflection point of a fitted 4 parameter sigmoidal response curve and the interpolated concentration of PROTAC corresponding to 50% of the protein being degraded, respectively. The corresponding pDC50 is reported as −log10(relative […]). The Dmax parameter was the maximum experimentally observed degradation and the asymptote max parameter the fitted response curve asymptote maximum.

SMILES	Dmax [%]
CC1(C)[C@H](NC(=O)c2ccc(N3CCC(CN4CCC(n5ccc6c(N7CCC(=O)NC7=O)cc(F)cc65)CC4)CC3)c(F)c2)C(C)(C)[C@H]1Oc1ccc(C#N)c2ncccc12 [Example 32, N-((1r,3r)-3-((8-Cyanoquinolin-5-yl)oxy)-2,2,4,4-tetramethylcyclobutyl)-4-(4-((4-(4-(2,4-dioxotetrahydropyrimidin-1(2H)-yl)-6-fluoro-1H-indol-1-yl)piperidin-1-yl)methyl)piperidin-1-yl)-3-fluorobenzamide]	≥ 50
CC1(C)[C@H](NC(=O)c2ccc(N3CCC(CN4CCC(n5ncc6c(N7CCC(=O)NC7=O)c(F)ccc65)CC4)CC3)c(F)c2)C(C)(C)[C@H]1Oc1ccc(C#N)c2ncccc12 [Example 50, N-((1r,3r)-3-((8-Cyanoquinolin-5-yl)oxy)-2,2,4,4-tetramethylcyclobutyl)-4-(4-((4-(4-(2,4-dioxotetrahydropyrimidin-1(2H)-yl)-5-fluoro-1H-indazol-1-yl)piperidin-1-yl)methyl)piperidin-1-yl)-3-fluorobenzamide]	≥ 50
CC1(C)[C@H](NC(=O)c2ccc(N3CCC(CN4CC[C@H](n5ncc6c(N7CCC(=O)NC7=O)cccc65)[C@H](F)C4)CC3)c(F)c2)C(C)(C)[C@H]1Oc1ccc(C#N)c2ncccc12 [Example 46, N-((1r,3r)-3-((8-Cyanoquinolin-5-yl)oxy)-2,2,4,4-tetramethylcyclobutyl)-4-(4-(((3R,4S)-4-(4-(2,4-dioxotetrahydropyrimidin-1(2H)-yl)-1H-indazol-1-yl)-3-fluoropiperidin-1-yl)methyl)piperidin-1-yl)-3-fluorobenzamide]	≥ 50
CC1(C)[C@H](NC(=O)c2ccc(N3CCC(CN4CCC(n5ncc6c(N7CCC(=O)NC7=O)cc(F)cc65)CC4)CC3)c(F)c2)C(C)(C)[C@H]1Oc1ccc(C#N)c2ncccc12 [Example 38, N-((1r,3r)-3-((8-Cyanoquinolin-5-yl)oxy)-2,2,4,4-tetramethylcyclobutyl)-4-(4-((4-(4-(2,4-dioxotetrahydropyrimidin-1(2H)-yl)-6-fluoro-1H-indazol-1-yl)piperidin-1-yl)methyl)piperidin-1-yl)-3-fluorobenzamide]	≥ 50
COc1cc(O[C@H]2C(C)(C)[C@H](NC(=O)c3ccc(N4CCC(CN5CCC(n6ncc7c(N8CCC(=O)NC8=O)cccc76)CC5)CC4)cc3)C2(C)C)ccc1C#N [Example 15, N-((1r,3r)-3-(4-Cyano-3-methoxyphenoxy)-2,2,4,4-tetramethylcyclobutyl)-4-(4-((4-(4-(2,4-dioxotetrahydropyrimidin-1(2H)-yl)-1H-indazol-1-yl)piperidin-1-yl)methyl)piperidin-1-yl)benzamide]	≥ 50
CC1(C)[C@H](NC(=O)c2ccc(N3CCC(CN4CCC(n5ccc6c(N7CCC(=O)NC7=O)ncnc65)CC4)CC3)c(F)c2)C(C)(C)[C@H]1Oc1ccc(C#N)c2ncccc12 [Example 47, N-((1r,3r)-3-((8-Cyanoquinolin-5-yl)oxy)-2,2,4,4-tetramethylcyclobutyl)-4-(4-((4-(4-(2,4-dioxotetrahydropyrimidin-1(2H)-yl)-7H-pyrrolo[2,3-d]pyrimidin-7-yl)piperidin-1-yl)methyl)piperidin-1-yl)-3-fluorobenzamide]	≥ 50
CC1(C)[C@H](NC(=O)c2ccc(N3CCC(CN4CCC(n5ccc6c(N7CCC(=O)NC7=O)cccc65)CC4)CC3)c(F)c2)C(C)(C)[C@H]1Oc1ccc(C#N)c2ncccc12 [Example 31, N-((1r,3r)-3-((8-Cyanoquinolin-5-yl)oxy)-2,2,4,4-tetramethylcyclobutyl)-4-(4-((4-(4-(2,4-dioxotetrahydropyrimidin-1(2H)-yl)-1H-indol-1-yl)piperidin-1-yl)methyl)piperidin-1-yl)-3-fluorobenzamide]	≥ 50
CC1(C)[C@H](NC(=O)c2ccc(N3CCC(CN4CCC(n5ncc6c(N7CCC(=O)NC7=O)nccc65)CC4)CC3)c(F)c2)C(C)(C)[C@H]1Oc1ccc(C#N)c2ncccc12 [Example 39, N-((1r,3r)-3-((8-Cyanoquinolin-5-yl)oxy)-2,2,4,4-tetramethylcyclobutyl)-4-(4-((4-(4-(2,4-dioxotetrahydropyrimidin-1(2H)-yl)-1H-pyrazolo[4,3-c]pyridin-1-yl)piperidin-1-yl)methyl)piperidin-1-yl)-3-fluorobenzamide]	≥ 50

Continued, values first:

Dmax [%]	SMILES
≥ 50	CC1(C)[C@H](NC(=O)c2ccc(N3CCC(CN4CC[C@@H](n5ncc6c(N7CCC(=O)NC7=O)cccc65)C4)CC3)c(F)c2)C(C)(C)[C@H]1Oc1ccc(C#N)c2ncccc12 [Example 36, N-((1r,3r)-3-((8-Cyanoquinolin-5-yl)oxy)-2,2,4,4-tetramethylcyclobutyl)-4-(4-(((R)-3-(4-(2,4-dioxotetrahydropyrimidin-1(2H)-yl)-1H-indazol-1-yl)pyrrolidin-1-yl)methyl)piperidin-1-yl)-3-fluorobenzamide]
≥ 50	CC1(C)[C@H](NC(=O)c2ccc(N3CC[C@H](CN4CCC(n5ncc6c(N7CCC(=O)NC7=O)cccc65)CC4)C3)c(F)c2)C(C)(C)[C@H]1Oc1ccc(C#N)c2ncccc12 [Example 34, N-((1r,3R)-3-((8-Cyanoquinolin-5-yl)oxy)-2,2,4,4-tetramethylcyclobutyl)-4-((R)-3-((4-(4-(2,4-dioxotetrahydropyrimidin-1(2H)-yl)-1H-indazol-1-yl)piperidin-1-yl)methyl)pyrrolidin-1-yl)-3-fluorobenzamide]
≥ 50	CC1(C)[C@H](NC(=O)c2ccc(N3CCC(CN4CC[C@H](n5ncc6c(N7CCC(=O)NC7=O)cccc65)C4)CC3)c(F)c2)C(C)(C)[C@H]1Oc1ccc(C#N)c2ncccc12 [Example 37, N-((1r,3r)-3-((8-Cyanoquinolin-5-yl)oxy)-2,2,4,4-tetramethylcyclobutyl)-4-(4-(((S)-3-(4-(2,4-dioxotetrahydropyrimidin-1(2H)-yl)-1H-indazol-1-yl)pyrrolidin-1-yl)methyl)piperidin-1-yl)-3-fluorobenzamide]
≥ 50	CC1(C)[C@H](NC(=O)c2ccc(N3CCC(CN4CCC(n5ncc6c(N7CCC(=O)NC7=O)cc(Cl)cc65)CC4)CC3)c(F)c2)C(C)(C)[C@H]1Oc1ccc(C#N)c2ncccc12 [Example 41, 4-(4-((4-(6-Chloro-4-(2,4-dioxotetrahydropyrimidin-1(2H)-yl)-1H-indazol-1-yl)piperidin-1-yl)methyl)piperidin-1-yl)-/-((1r,3r)-3-((8-cyanoquinolin-5-yl)oxy)-2,2,4,4-tetramethylcyclobutyl)-3-fluorobenzamide]
≥ 50	CC1(C)[C@H](NC(=O)c2ccc(N3CCC(CN4CCC(n5ncc6c(N7CCC(=O)NC7=O)cccc65)CC4)CC3)c(F)c2)C(C)(C)[C@H]1Oc1ccc(C#N)c2c1CCCO2 [Example 8, N-((1r,3r)-3-((8-Cyanochroman-5-yl)oxy)-2,2,4,4-tetramethylcyclobutyl)-4-(4-((4-(4-(2,4-dioxotetrahydropyrimidin-1(2H)-yl)-1H-indazol-1-yl)piperidin-1-yl)methyl)piperidin-1-yl)-3-fluorobenzamide]
